# Tested on: HCT116
# Assay: In vitro cytotoxicity measured by the cell colony formation assay
# Type: cell-based
# Details: HCT116 cells, 72 h drug incubation, colonies counted after 7 days; ID50 = drug concentration producing 50% inhibition of colony formation; read-out: IN VITRO ID 50 (nm) HCT116
# Procedure: In Vitro Cytotoxicity Measured by the Cell Colony Formation Assay
# Four hundred cells (HCT116) were plated in 60 mm Petri dishes containing 2.7 mL of medium (modified McCoy's 5a medium containing 10% fetal bovine serum and 100 units/mL penicillin and 100 µg/mL streptomycin). The cells were incubated in a CO2 incubator at 37° C. for 5 h for attachment to the bottom of Petri dishes. The compounds identified in Example 2 were made up fresh in medium at ten times the final concentration, and then 0.3 mL of this stock solution was added to the 2.7 mL of medium in the dish. The cells were then incubated with drugs for 72 h at 37° C. At the end of incubation the drug-containing media were decanted, the dishes were rinsed with 4 mL of Hank's Balance Salt Solution (HBSS), 5 mL of fresh medium was added, and the dishes were returned to the incubator for colony formation. The cell colonies were counted using a colony counter after incubation for 7 days.
row,SMILES,IC50 [nM]
1,CC(=O)OC12COC1CC(O)C1(C)C(=O)C(OC(=O)c3ccco3)C3=C(C)C(OC(=O)C(O)C(NC(=O)OC(C)(C)C)c4cccnc4)CC(O)(C(OC(=O)c4ccccc4)C21)C3(C)C (stereo not shown) [Compound 2124],< 10
2,CC(=O)OC12COC1CC(O)C1(C)C(=O)C(OC(=O)c3ccco3)C3=C(C)C(OC(=O)C(O)C(NC(=O)OC(C)(C)C)c4ccncc4)CC(O)(C(OC(=O)c4ccccc4)C21)C3(C)C (stereo not shown) [Compound 2132],< 1
3,CC(=O)OC12COC1CC(O)C1(C)C(=O)C(OC(=O)c3ccco3)C3=C(C)C(OC(=O)C(O)C(NC(=O)OC(C)(C)C)c4ccco4)CC(O)(C(OC(=O)c4ccccc4)C21)C3(C)C (stereo not shown) [Compound 2142],< 1
4,CC(=O)OC12COC1CC(O)C1(C)C(=O)C(OC(=O)c3ccco3)C3=C(C)C(OC(=O)C(O)C(NC(=O)OC(C)(C)C)c4ccoc4)CC(O)(C(OC(=O)c4ccccc4)C21)C3(C)C (stereo not shown) [Compound 2159],< 1
5,CC(=O)OC12COC1CC(O)C1(C)C(=O)C(OC(=O)c3ccco3)C3=C(C)C(OC(=O)C(O)C(NC(=O)OC(C)(C)C)c4cccs4)CC(O)(C(OC(=O)c4ccccc4)C21)C3(C)C (stereo not shown) [Compound 2164],< 1
6,CC(=O)OC12COC1CC(O)C1(C)C(=O)C(OC(=O)c3ccco3)C3=C(C)C(OC(=O)C(O)C(NC(=O)OC(C)(C)C)c4ccsc4)CC(O)(C(OC(=O)c4ccccc4)C21)C3(C)C (stereo not shown) [Compound 2173],< 1
7,CC(=O)OC12COC1CC(O)C1(C)C(=O)C(OC(=O)c3ccco3)C3=C(C)C(OC(=O)C(O)C(NC(=O)OC(C)(C)C)C(C)C)CC(O)(C(OC(=O)c4ccccc4)C21)C3(C)C (stereo not shown) [Compound 2181],< 10
8,CC(=O)OC12COC1CC(O)C1(C)C(=O)C(OC(=O)c3ccco3)C3=C(C)C(OC(=O)C(O)C(NC(=O)OC(C)(C)C)C4CCC4)CC(O)(C(OC(=O)c4ccccc4)C21)C3(C)C (stereo not shown) [Compound 2199],< 10
9,CC(=O)OC12COC1CC(O)C1(C)C(=O)C(OC(=O)c3ccco3)C3=C(C)C(OC(=O)C(O)C(NC(=O)OC(C)(C)C)c4ccc([N+](=O)[O-])cc4)CC(O)(C(OC(=O)c4ccccc4)C21)C3(C)C (stereo not shown) [Compound 2202],< 1
10,CC(=O)OC12COC1CC(O)C1(C)C(=O)C(OC(=O)c3ccco3)C3=C(C)C(OC(=O)C(O)C(NC(=O)OC(C)(C)C)c4ccccc4)CC(O)(C(OC(=O)c4ccccc4)C21)C3(C)C (stereo not shown) [Compound 2212],< 10
11,CC(=O)OC12COC1CC(O)C1(C)C(=O)C(OC(=O)C(C)C)C3=C(C)C(OC(=O)C(O)C(C=C(C)C)NC(=O)OC(C)(C)C)CC(O)(C(OC(=O)c4ccccc4)C21)C3(C)C (stereo not shown) [Compound 2226],< 1
12,CC(=O)OC12COC1CC(O)C1(C)C(=O)C(OC(=O)C(C)C)C3=C(C)C(OC(=O)C(O)C(NC(=O)OC(C)(C)C)c4ccccn4)CC(O)(C(OC(=O)c4ccccc4)C21)C3(C)C (stereo not shown) [Compound 2238],< 1
13,CC(=O)O[C@@]12CO[C@@H]1C[C@H](O)[C@@]1(C)C(=O)[C@H](OC(=O)C(C)C)C3=C(C)[C@@H](OC(=O)[C@H](O)[C@@H](NC(=O)OC(C)(C)C)c4cccnc4)C[C@@](O)([C@@H](OC(=O)c4ccccc4)C12)C3(C)C (stereo partly shown) [Compound 2242],< 10
14,CC(=O)O[C@@]12CO[C@@H]1C[C@H](O)[C@@]1(C)C(=O)[C@H](OC(=O)C(C)C)C3=C(C)[C@@H](OC(=O)[C@H](O)[C@@H](NC(=O)OC(C)(C)C)c4ccncc4)C[C@@](O)([C@@H](OC(=O)c4ccccc4)C12)C3(C)C (stereo partly shown) [Compound 2255],< 1
15,CC(=O)O[C@@]12CO[C@@H]1C[C@H](O)[C@@]1(C)C(=O)[C@H](OC(=O)C(C)C)C3=C(C)[C@@H](OC(=O)[C@H](O)[C@@H](NC(=O)OC(C)(C)C)c4ccco4)C[C@@](O)([C@@H](OC(=O)c4ccccc4)C12)C3(C)C (stereo partly shown) [Compound 2269],< 1
16,CC(=O)O[C@@]12CO[C@@H]1C[C@H](O)[C@@]1(C)C(=O)[C@H](OC(=O)C(C)C)C3=C(C)[C@@H](OC(=O)[C@H](O)[C@@H](NC(=O)OC(C)(C)C)c4ccoc4)C[C@@](O)([C@@H](OC(=O)c4ccccc4)C12)C3(C)C (stereo partly shown) [Compound 2273],< 1
17,CC(=O)O[C@@]12CO[C@@H]1C[C@H](O)[C@@]1(C)C(=O)[C@H](OC(=O)C(C)C)C3=C(C)[C@@H](OC(=O)[C@H](O)[C@@H](NC(=O)OC(C)(C)C)c4cccs4)C[C@@](O)([C@@H](OC(=O)c4ccccc4)C12)C3(C)C (stereo partly shown) [Compound 2287],< 1

row,SMILES,IC50 [nM]
1,CC(=O)O[C@@]12CO[C@@H]1C[C@H](O)[C@@]1(C)C(=O)[C@H](OC(=O)C(C)C)C3=C(C)[C@@H](OC(=O)[C@H](O)[C@@H](NC(=O)OC(C)(C)C)c4ccsc4)C[C@@](O)([C@@H](OC(=O)c4ccccc4)C12)C3(C)C (stereo partly shown) [Compound 2291],< 1
2,CC(=O)O[C@@]12CO[C@@H]1C[C@H](O)[C@@]1(C)C(=O)[C@H](OC(=O)C(C)C)C3=C(C)[C@@H](OC(=O)[C@H](O)[C@@H](NC(=O)OC(C)(C)C)C(C)C)C[C@@](O)([C@@H](OC(=O)c4ccccc4)C12)C3(C)C (stereo partly shown) [Compound 2306],< 10
3,CC(=O)O[C@@]12CO[C@@H]1C[C@H](O)[C@@]1(C)C(=O)[C@H](OC(=O)C(C)C)C3=C(C)[C@@H](OC(=O)[C@H](O)[C@@H](NC(=O)OC(C)(C)C)C4CCC4)C[C@@](O)([C@@H](OC(=O)c4ccccc4)C12)C3(C)C (stereo partly shown) [Compound 2319],< 10
4,CC(=O)O[C@@]12CO[C@@H]1C[C@H](O)[C@@]1(C)C(=O)[C@H](OC(=O)C(C)C)C3=C(C)[C@@H](OC(=O)[C@H](O)[C@@H](NC(=O)OC(C)(C)C)c4ccc([N+](=O)[O-])cc4)C[C@@](O)([C@@H](OC(=O)c4ccccc4)C12)C3(C)C (stereo partly shown) [Compound 2320],< 1
5,C/C=C/C(=O)O[C@H]1C(=O)[C@@]2(C)C([C@H](OC(=O)c3ccccc3)[C@]3(O)C[C@H](OC(=O)[C@H](O)[C@H](C=C(C)C)NC(=O)OC(C)(C)C)C(C)=C1C3(C)C)[C@]1(OC(C)=O)CO[C@@H]1C[C@@H]2O (stereo partly shown) [Compound 2332],< 1
6,C/C=C/C(=O)O[C@H]1C(=O)[C@@]2(C)C([C@H](OC(=O)c3ccccc3)[C@]3(O)C[C@H](OC(=O)[C@H](O)[C@@H](NC(=O)OC(C)(C)C)c4ccccn4)C(C)=C1C3(C)C)[C@]1(OC(C)=O)CO[C@@H]1C[C@@H]2O (stereo partly shown) [Compound 2348],< 1
7,C/C=C/C(=O)O[C@H]1C(=O)[C@@]2(C)C([C@H](OC(=O)c3ccccc3)[C@]3(O)C[C@H](OC(=O)[C@H](O)[C@@H](NC(=O)OC(C)(C)C)c4cccnc4)C(C)=C1C3(C)C)[C@]1(OC(C)=O)CO[C@@H]1C[C@@H]2O (stereo partly shown) [Compound 2353],< 10
8,C/C=C/C(=O)O[C@H]1C(=O)[C@@]2(C)C([C@H](OC(=O)c3ccccc3)[C@]3(O)C[C@H](OC(=O)[C@H](O)[C@@H](NC(=O)OC(C)(C)C)c4ccncc4)C(C)=C1C3(C)C)[C@]1(OC(C)=O)CO[C@@H]1C[C@@H]2O (stereo partly shown) [Compound 2366],< 1
9,C/C=C/C(=O)O[C@H]1C(=O)[C@@]2(C)C([C@H](OC(=O)c3ccccc3)[C@]3(O)C[C@H](OC(=O)[C@H](O)[C@@H](NC(=O)OC(C)(C)C)c4ccco4)C(C)=C1C3(C)C)[C@]1(OC(C)=O)CO[C@@H]1C[C@@H]2O (stereo partly shown) [Compound 2379],< 1
10,C/C=C/C(=O)O[C@H]1C(=O)[C@@]2(C)C([C@H](OC(=O)c3ccccc3)[C@]3(O)C[C@H](OC(=O)[C@H](O)[C@@H](NC(=O)OC(C)(C)C)c4ccoc4)C(C)=C1C3(C)C)[C@]1(OC(C)=O)CO[C@@H]1C[C@@H]2O (stereo partly shown) [Compound 2380],< 1
11,C/C=C/C(=O)O[C@H]1C(=O)[C@@]2(C)C([C@H](OC(=O)c3ccccc3)[C@]3(O)C[C@H](OC(=O)[C@H](O)[C@@H](NC(=O)OC(C)(C)C)c4cccs4)C(C)=C1C3(C)C)[C@]1(OC(C)=O)CO[C@@H]1C[C@@H]2O (stereo partly shown) [Compound 2392],< 1
12,C/C=C/C(=O)O[C@H]1C(=O)[C@@]2(C)C([C@H](OC(=O)c3ccccc3)[C@]3(O)C[C@H](OC(=O)[C@H](O)[C@@H](NC(=O)OC(C)(C)C)c4ccsc4)C(C)=C1C3(C)C)[C@]1(OC(C)=O)CO[C@@H]1C[C@@H]2O (stereo partly shown) [Compound 2408],< 1
13,C/C=C/C(=O)O[C@H]1C(=O)[C@@]2(C)C([C@H](OC(=O)c3ccccc3)[C@]3(O)C[C@H](OC(=O)[C@H](O)[C@@H](NC(=O)OC(C)(C)C)C(C)C)C(C)=C1C3(C)C)[C@]1(OC(C)=O)CO[C@@H]1C[C@@H]2O (stereo partly shown) [Compound 2413],< 10
14,C/C=C/C(=O)O[C@H]1C(=O)[C@@]2(C)C([C@H](OC(=O)c3ccccc3)[C@]3(O)C[C@H](OC(=O)[C@H](O)[C@@H](NC(=O)OC(C)(C)C)C4CCC4)C(C)=C1C3(C)C)[C@]1(OC(C)=O)CO[C@@H]1C[C@@H]2O (stereo partly shown) [Compound 2424],< 10
15,C/C=C/C(=O)O[C@H]1C(=O)[C@@]2(C)C([C@H](OC(=O)c3ccccc3)[C@]3(O)C[C@H](OC(=O)[C@H](O)[C@@H](NC(=O)OC(C)(C)C)c4ccc([N+](=O)[O-])cc4)C(C)=C1C3(C)C)[C@]1(OC(C)=O)CO[C@@H]1C[C@@H]2O (stereo partly shown) [Compound 2439],< 10
16,C/C=C/C(=O)O[C@H]1C(=O)[C@@]2(C)C([C@H](OC(=O)c3ccccc3)[C@]3(O)C[C@H](OC(=O)[C@H](O)[C@@H](NC(=O)OC(C)(C)C)c4ccccc4)C(C)=C1C3(C)C)[C@]1(OC(C)=O)CO[C@@H]1C[C@@H]2O (stereo partly shown) [Compound 2442],< 1
17,CC(=O)O[C@@]12CO[C@@H]1C[C@H](O)[C@@]1(C)C(=O)[C@H](OC(=O)C=C(C)C)C3=C(C)[C@@H](OC(=O)[C@H](O)[C@H](C=C(C)C)NC(=O)OC(C)(C)C)C[C@@](O)([C@@H](OC(=O)c4ccccc4)C12)C3(C)C (stereo partly shown) [Compound 2455],< 10

# From patent US7524869B2, “Taxanes having a C10 ester substituent” (Florida State University Research Foundation, Inc., priority 2000, dated 2009)
